These results are taken from PubChem BioAssay AID434987 (Southern Research Specialized Biocontainment Screening …, 2010).

Calls of active or inactive are those of the source. No rule for the calls is given here.

In this assay the test system is M. tuberculosis H37Rv growth inhibition with meropenem. Kind of assay: dose response, H37Rv, with and without meropenem (AID 434987).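 Also: growth over 7 days at 37 °C before Alamar Blue read on day 9.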
The mark [1] stands for this setting: M. tuberculosis H37Rv growth inhibition, measured here: IC50 without meropenem.
Where [2] appears, read: M. tuberculosis H37Rv growth inhibition, measured here: IC90 without meropenem.
The mark [3] stands for this setting: measured here: IC90 with meropenem.

A word on the IC50: it is the point on the concentration scale where inhibition reaches its midpoint. In general, IC90 refers to the concentration needed for an effect of 90%. Read a high IC90 as a need for much substance. As to `C=CCC(Nc1ccccc1)C12C=CC(O1)C(C(=O)OC)=C2C(=O)OC` (stereo not drawn), the IC50 was > 100 µM (inactive). Under setting [1], this molecule had an IC50 above 100 µM. Also, under setting [2], the 90% effect concentration (IC90) was above 100 µM. Further, the IC90 under setting [3] is above 100 µM.

Take `O=C(C1=C[C@H](c2ccc(Br)cc2)C[C@H](OCCCCO)O1)N1CCN(Cc2ccc3c(c2)OCO3)CC1`: the IC50 was 49.4 µM (inactive). Further, the IC50 under setting [1] was 65.3 µM. Under setting [2], this molecule yielded an IC90 of 88 µM. For the same molecule, the IC90 under setting [3] is above 100 µM.

`NC(=S)N/N=C/c1ccc2ccccc2c1`: the half-inhibitory concentration (IC50) is 2.02 µM. Under setting [1], this molecule yielded an IC50 above 100 µM. The IC90 under setting [2] was above 100 µM. Moreover, under setting [3], the concentration for an effect of 90% (IC90) was above 100 µM.

Consider `O=C(Nc1cccc(C(F)(F)F)c1)N1CCC(c2nc(-c3ccc(F)cc3)no2)CC1`, for which the IC50 is > 100 µM (inactive). This molecule also displayed an IC50 under setting [1] above 100 µM. In addition, under setting [2], the IC90 was above 100 µM. Under setting [3], this molecule registered a 90% effect concentration (IC90) above 100 µM.

For `CC(C)C(=O)Nc1ccc(NC(=S)NC(=O)c2ccc([N+](=O)[O-])cc2)cc1`, the IC50 is > 100 µM (inactive). The IC50 under setting [1] is above 100 µM. This molecule had a concentration for an effect of 90% (IC90) under setting [2] above 100 µM. The IC90 under setting [3] was above 100 µM.

For `Cc1ccc(C)c(N2CCN(CC3CC=CCC3)CC2)c1` (stereo not drawn), the concentration for half-maximal inhibition (IC50) was 25.6 µM. Also, under setting [1], the IC50 was 79.8 µM. Under setting [2], this molecule came in with a concentration for an effect of 90% (IC90) above 100 µM. The same molecule returned an IC90 under setting [3] of 60.7 µM.

Turning to `COc1ccc(/C=C2/CCCC(C(=O)C(F)(F)F)=C2O)cc1OC`, the IC50 was 34.6 µM. Under setting [1], the 50% inhibitory concentration (IC50) was 96.9 µM. This molecule also showed an IC90 under setting [2] above 100 µM. Further, under setting [3], the IC90 was above 100 µM.

For `O=C(Nc1ccc([N+](=O)[O-])cc1)c1cc2ccccc2nc1Cl`, the IC50 is > 100 µM (inactive). Further, under setting [1], the IC50 was above 100 µM. Under setting [2], this molecule yielded a 90% effect concentration (IC90) above 100 µM. Under setting [3], this molecule displayed a 90% effect concentration (IC90) above 100 µM.

For `C=CCOc1ccc(C2N3CC4(C)CN2CC(CCC)(C3)C4=O)cc1` (stereo not drawn), the IC50 is > 100 µM (inactive). The IC50 under setting [1] was above 100 µM. The IC90 under setting [2] was above 100 µM. The IC90 under setting [3] was above 100 µM.

`COc1ccc(-c2nc(-c3cccc(C)c3)no2)cc1OC`: the IC50 is > 100 µM (inactive). Under setting [1], this molecule yielded an IC50 above 100 µM. The concentration for an effect of 90% (IC90) under setting [2] was above 100 µM. The molecule also yielded an IC90 under setting [3] above 100 µM.

With `CCOC(=O)C1=C(C)N=c2s/c(=C\c3ccncc3)c(=O)n2C1c1ccc2c(c1)OCO2` (stereo not drawn), the IC50 was 69.7 µM (inactive). This molecule gave a half-inhibitory concentration (IC50) under setting [1] of 95.7 µM. Moreover, the IC90 under setting [2] was above 100 µM. Under setting [3], this molecule registered an IC90 above 100 µM.

`CCOc1ccc(N2C(=O)CC(N)C2=O)cc1` (stereo not drawn): the IC50 is 30.9 µM (inactive). This molecule returned an IC50 under setting [1] of 45.9 µM. Also, the IC90 under setting [2] was determined as 51.4 µM. The molecule also came in with a concentration for an effect of 90% (IC90) under setting [3] of 52.4 µM.

Turning to `NC(=O)CN1C(=O)C(O)(CC(=O)/C=C\C=C\c2ccccc2)c2ccccc21` (stereo not drawn), the IC50 was > 100 µM (inactive). Moreover, the half-inhibitory concentration (IC50) under setting [1] was above 100 µM. This molecule came in with a concentration for an effect of 90% (IC90) under setting [2] above 100 µM. Also, under setting [3], the IC90 was above 100 µM.

Consider `COc1ccc2c(c1)c(CC(=O)Nc1ccc(C)cc1)c(C)n2C(=O)c1ccc(Cl)cc1`, for which the IC50 is > 100 µM (inactive). Moreover, the concentration for half-maximal inhibition (IC50) under setting [1] is above 100 µM. Under setting [2], this molecule yielded a 90% effect concentration (IC90) above 100 µM. Moreover, the concentration for an effect of 90% (IC90) under setting [3] was above 100 µM.

`Cc1nc2sc3c(c2c2nnc(SCC(=O)NCc4ccco4)n12)CCCC3`: the IC50 is 82.6 µM (inactive). Under setting [1], the IC50 came out at 80.4 µM. Under setting [2], the IC90 was above 100 µM. The molecule further showed an IC90 under setting [3] above 100 µM.

Regarding `Cc1nn(-c2ccccc2)c(Cl)c1CN(C(=O)CCl)c1cccc2ccccc12`, the IC50 is 18.7 µM (inactive). This molecule also yielded a 50% inhibitory concentration (IC50) under setting [1] of 33 µM. This molecule also gave a concentration for an effect of 90% (IC90) under setting [2] of 53.4 µM. The IC90 under setting [3] was found to be 48.2 µM.

As for `CCOc1ccc(-c2nnc(SCC(=O)N3CCOCC3)o2)cc1`, the IC50 is > 100 µM (inactive). Besides, the 50% inhibitory concentration (IC50) under setting [1] is above 100 µM. The molecule also showed an IC90 under setting [2] above 100 µM. The same molecule displayed an IC90 under setting [3] above 100 µM.

Consider `CC(C)C(=O)Nc1ccc2c3c(cccc13)CC2`, for which the IC50 was 19.4 µM. Besides, the IC50 under setting [1] was above 100 µM. This molecule also showed an IC90 under setting [2] above 100 µM. Under setting [3], the concentration for an effect of 90% (IC90) is above 100 µM.

For `COc1ccc(-c2cc(-c3ccc(OC)cc3)nc(-c3ccc4c(c3)NC(=O)CO4)c2)cc1`, the IC50 is > 100 µM (inactive). In addition, the half-maximal inhibitory concentration (IC50) under setting [1] is above 100 µM. Moreover, the IC90 under setting [2] is above 100 µM. The molecule further had an IC90 under setting [3] above 100 µM.

With `Cc1ccc(CSc2nccc(-c3c(C)nc4ccccn34)n2)cc1`, the 50% inhibitory concentration (IC50) was 7.91 µM. Further, the half-inhibitory concentration (IC50) under setting [1] came out at 22.2 µM. Moreover, the IC90 under setting [2] is above 100 µM. Under setting [3], this molecule displayed an IC90 above 100 µM.

As to `NNC(=S)NC1CC2CC1C1C=CCC21` (stereo not drawn), the IC50 was 12.4 µM (inactive). This molecule also returned a 50% inhibitory concentration (IC50) under setting [1] of 21.1 µM. The molecule further had an IC90 under setting [2] of 23.9 µM. The 90% effect concentration (IC90) under setting [3] is 13.5 µM.

In the case of `CC1CCCN(S(=O)(=O)c2ccc(C(=O)Nc3nnc(-c4ccncc4)o3)cc2)C1` (stereo not drawn), the IC50 was 32.4 µM (inactive). This molecule registered an IC50 under setting [1] of 49.3 µM. Under setting [2], this molecule had an IC90 of 78.1 µM. Also, the IC90 under setting [3] turned out to be 64.8 µM.
